Results on two compounds are retold here after patent US7704957B2, “Composition for inhibiting HIV activity extracted from Paecilomyces sp. (Tochu-kaso) J300” (priority 2001, dated 2010).

Residues, ends and D or L forms follow the SMILES beside them.

The subject of assay [1] is HIV. Briefly: Anti-HIV activity: survivability of cells protected from destruction by HIV, XTT method (National Cancer Institute method). The format is cell-based. The settings on record: fractions Dong 1-2-1 to 1-2-8. The method, then:
In FIGS. 2 to 8, 11 and 18, the term “Infected” (diamond mark ♦) is for the samples that a reagent is applied after the cells are infected with the virus to observe the protection of cells from the cell destruction of HIV. The term “Uninfected” (square mark □) is for the samples that only reagent is added with different concentration to observe the toxicity of the reagent according to the concentration. Further, X axis represents the concentration of the sample and Y axis represents the survivability of the cells in percentages (%).
In the present invention, the measurement of anti-HIV activity followed the method of National Cancer Institute (U.S.A.). In the method, survivability of cells that are protected from the destruction due to HIV was measured when the cells were treated with the active component of the present invention to determine the anti-HIV activity of the material.
In detail, the mixture of cell+HIV+sample (active compound) was cultured for 1 week, and then cell toxicity was measured by XTT method. […]
In this example, colorimetric assay was adopted to observe the growth and death of the cells, which uses the fact that tetrazole salt (MTT, XTT, WST-1) is broken only in the living cell to form non-soluble formazan structure. By quantitating the amount of the formazane wih ELISA method, the amount of living cell is measured quantitatively. […]
(Tetrazolium assays rely on reduction of a dye to a coloured formazan, in cell work by metabolically active cells.)

For assay [2], the system named is HIV. As to the kind of experiment: Functional mechanism: sample added 30 minutes before or after virus infection. The format is cell-based. The settings on record: sample 30 minutes before infection, FIG. 7. As for the experimental part:
To determine whether a material functions or not in the cell, the mixture of cell and sample is incubated for 30 minutes then infected with virus. […] In these case, the samples permeate the membranes of the cell and suppress the propagation of the virus in the cell, as well as the samples attach on the surface of the cell and suppress the introduction of the virus into the cell (FIG. 7)
In addition, after the cell was infected with the virus and incubated for 30 minutes, then the extracts of Tochu-kaso J300 were administered. If the functional site of the active material is out of the cell, the anti-HIV activity would not be detected; on the other hand, if the functional site is in the cell, the activity would be detected. […] This proves that the active material suppresses the propagation of the virus in the cell, even when the sample is administered after a long time after the infection of the cell with virus (FIG. 8).

Take `CC(C)CC(NC(=O)C1CCCN1)C(=O)O` (stereo not drawn) [Dong 1-2-5, 4-methyl-2-[(pyrolidine-2-carbonyl)-2-amino]pentanoic acid] (H-Pro-Leu-OH; configuration not given here): the “anti-AIDS activity of fractions of Dong 1-2” value in the assay with HIV [1] is listed as “more intense activity compared to others”. Moreover, in the assay on HIV [2], the “activity when sample is added to the cell and virus infected 30 minutes later” value is “showed activity”.

`COC(C)C1NC(=O)C(CCC(=O)O)NC1=O` (stereo not shown) [Dong 1-2-4, 3-[5-(methoxy-ethyl)-3,6-dioxo-piperazine-2-yl]propionic acid]: the “anti-AIDS activity of fractions of Dong 1-2” value with HIV [1] is given as “more intense activity compared to others”. Moreover, in the assay on HIV [2], the “activity when sample is added to the cell and virus infected 30 minutes later” value is recorded as “showed activity”.
